Data taken from patent publication US20130084287A1, “DIAGNOSTIC MARKERS” (GENENTECH, INC., priority 2011, published 2013).
Read-outs that look alike come from different tables or passages of the source.

What was measured:
Type in all cases: cell-based
NSCLC cell lines [1] = assay: quantitative PCR of gene expression in 5-aza-dC-treated vs DMSO-treated NSCLC cell lines
Method: (§1) Cells were grown in RPMI 1640 supplemented with 10% fetal bovine serum and 2 mM L-Glutamine Cells were seeded on day 0 at 4000-9000 cells/cm2 and dosed with 1 μM 5-aza-2′-deoxycytidine (5-aza-dC) (SIGMA-ALDRICH Cat No. A3656) or DMSO control (Cat No. D2650) on days 1, 3, and 5. On day 6 cells were washed once in cold PBS and harvested by scraping in Trizol (Invitrogen, Cat No 15596018) and extracted for RNA or flash frozen for later RNA extraction. For induction of EMT, cells were plated at 20000-50000 cells/10 cm2 in complete medium and supplemented with 2 ng/mL human transforming growth factor beta 1 (TGFβ1) (R&D Systems, Cat No 100-B/CF) or PBS control. Media and TGFβ1 were replaced every 3 days, and RNA was extracted at 4-5 weeks following TGFβ1 induction of EMT. Gene expression changes were assessed using Taqman assays for the 20-gene EMT panel (FIG. 1).
To evaluate the role of methylation in regulating expression of the genes associated with select DMRs, quantitative PCR was carried out in a panel of 34 5-aza-2′-deoxycytidine (5-aza-dC) and dimethyl sulfoxide-treated NSCLC cell lines. […] From this group of genes, CLDN7 was selected as a representative marker of EMT and its methylation status was quantified by pyrosequencing in an extended panel of 42 cell lines.
In FIG. 5A, quantitative methylation was determined at 7 CpG sites by PyroMark analysis software using the equation: % methylation=(C peak height×100/C peak height+T peak height). Data are represented as the mean±SD percentage of methylation at 7 CpG sites. In FIG. 5B, relative expression of CLDN7 mRNA was determined using a standard ΔCt method in 42 (n=20 epithelial-like, 19 mesenchymal-like, 3 intermediate) DMSO-treated and 5-aza-dC-treated NSCLC cell lines. Expression values were calculated as a fold change in 5-aza-dC-treated relative to DMSO-treated control cells. Data are normalized to the housekeeping gene GAPDH and represented as the mean of 2 replicates. DMSO, dimethyl sulfoxide; GAPDH, glyceraldehyde-3-phosphate dehydrogenase.

NSCLC cell lines [2] = assay: TGFβ1 induction of EMT, 20-gene EMT expression panel and morphology; settings: 2 cell lines, 2 ng/mL TGFβ1
Method: as §1
2 μl of total RNA was reverse-transcribed to cDNA and pre-amplified in a single reaction using Superscript III/Platinum Taq (Invitrogen) and Pre-amplification reaction mix (Invitrogen). 20 Taqman primer/probe sets selected for the EMT expression panel (FIG. 1) were included in the pre-amplification reaction at a final dilution of 0.05× original Taqman assay concentration (Applied Biosystems). […]
Pre-amplified cDNA was diluted 1.94-fold and then amplified using Taqman Universal PCR MasterMix (Applied Biosystems) on the BioMark BMK-M-96.96 platform (Fluidigm) according to the manufacturer's instructions. […] Two custom-designed reference genes that were previously evaluated for their expression stability across multiple cell lines, fresh-frozen tissue samples, and FFPE tissue samples, AL-1377271 and VPS-33B, were included in the expression panel. A mean of the Ct values for the two reference genes was calculated for each sample, and expression levels of EMT target genes were determined using the delta Ct (dCt) method as follows: Mean Ct (Target Gene)−Mean Ct (Reference Genes). […]

NSCLC cell lines [3] = assay: erlotinib IC50 determination, Celltiter-Glo Luminescent Cell Viability Assay; settings: for IC50: read-out: erlotinib sensitivity (IC50 class)
Method: For erlotinib IC50 determination, cells were plated in quadruplicate at 3×10^2 cells per well in 384-well plates in RPMI containing 0.5% FBS (assay medium) and incubated overnight. 24 hours later, cells were treated with assay medium containing 3 nM TGFα and erlotinib at a dose range of 10 μM-1 pM final concentration. After 72 hrs, cell viability was measured using the Celltiter-Glo Luminescent Cell Viability Assay (Promega). The concentration of erlotinib resulting in 50% inhibition of cell viability was calculated from a 4-parameter curve analysis and was determined from a minimum of two experiments.

Nc1ncn([C@H]2C[C@H](O)[C@@H](CO)O2)c(=O)n1 [5-aza-dC, 5-aza-2′-deoxycytidine]
induction of CLDN7 expression (NSCLC cell lines [1]; majority of the epithelial-like cell lines, 1 μM 5-aza-dC): not induced further | induction of GRHL2, ESRP1, and CLDN7 transcripts (NSCLC cell lines [1]; mesenchymal-like versus epithelial-like lines, panel of 34 NSCLC cell lines): significant induction | induction of CLDN7 expression, fold change in 5-aza-dC-treated relative to DMSO-treated control cells (NSCLC cell lines [1]; nearly all mesenchymal-like lines, 1 μM 5-aza-dC, normalized to GAPDH): > 10 fold

TGFβ1: human transforming growth factor beta 1 (R&D Systems), used for induction of EMT
morphologic changes (NSCLC cell lines [2]): induced morphologic changes associated with an EMT | expression of genes associated with a mesenchymal phenotype (NSCLC cell lines [2]; 20-gene EMT panel): upregulated | expression of genes associated with an epithelial phenotype (NSCLC cell lines [2]; 20-gene EMT panel): downregulated

C#Cc1cccc(Nc2ncnc3cc(OCCOC)c(OCCOC)cc23)c1 [erlotinib, [6,7-bis(2-methoxyethoxy)-4-quinazolin-4-yl]-(3-ethynylphenyl) amine]
IC50 (NSCLC cell lines [3]; 6 EGFR-mutant NSCLC cell lines): ≤ 2 µM | IC50 (NSCLC cell lines [3]; 72 h, RERF-LC-MS cell line, 72 hrs, 3 nM TGFα): ≤ 2 µM | erlotinib sensitivity (NSCLC cell lines [3]; H1993, MET amplification): resistance | IC50 (NSCLC cell lines [3]; Homo sapiens, NCI-H838, 72 h, H838 cell line, 72 hrs, 3 nM TGFα): ≤ 2 µM | IC50 (NSCLC cell lines [3]; Homo sapiens, NCI-H2030, 72 h, H2030 cell line, 72 hrs, 3 nM TGFα): ≤ 2 µM | IC50 (NSCLC cell lines [3]; Homo sapiens, SK-MES-1, 72 h, SK-MES-1 cell line, 72 hrs, 3 nM TGFα): ≤ 2 µM | erlotinib sensitivity (NSCLC cell lines [3]; epithelial-like line H1975, T790M mutation in EGFR): resistance | IC50 (NSCLC cell lines [3]; nearly all mesenchymal-like lines): ≥ 8 µM
